Consider seven compounds from patent publication US8742114B2, “Nucleic acid detections and methods of their use” (priority 2011, dated 2014).

Data set [1] deals with live and fixed HeLa cells. Put plainly: Cellular nucleic acid staining. Format: cell-based. The note with it: 1 μM in PBS buffer, 10 min, fluorescence microscopy, FIG. 5. How it is done:
Compound 38, compound 42, and compound 61 were prepared in 1 mM stock solution in water, respectively. Each compound at 1 μM concentration in PBS buffer was incubated with live and fixed HeLa cells in 96-well plate for 10 min, respectively. The fluorescence imaging of cells was taken on a fluorescence microscopy with a 488 nm excitation laser and a 520±15 nm emission filter, as shown in FIG. 5.

A further data set has as its system nucleic acids. The note with it: background; cited from earlier work.
Another data set deals with DNA or RNA. The data set is described as follows: Binding selectivity on DNA or RNA (effect of R3). The note with it: R3 methyl 4-benzoate versus R3 H.
The conditions of data set [2]: background; cited from earlier work.
Another data set relates to dsDNA, ssDNA, and RNA. Put plainly: Selectivity test on dsDNA, ssDNA, and RNA in TE buffer. The note with it: 2 μM dye, 10 μg/mL nucleic acid, 1×TE buffer, ex 480 nm (36, 40) or 620 nm (49), FIG. 2.

Method for dsDNA, ssDNA, and RNA: Compound 36, compound 40, and compound 49 were prepared in 2 μM concentration in 1×TE buffer, individually. Salmon sperm dsDNA, calf thymus ssDNA, and E. coli rRNA were prepared in 10 μg/mL concentration in 1×TE buffer, individually. Equal amount of each solution of dsDNA, ssDNA, and RNA was added to the solutions of compound 36, compound 40 and compound 49, individually. The emission spectrum associated with each of the solutions was scanned at excitation wavelength 480 nm for compound 36 and 40, and at excitation wavelength 620 nm for compound 49.

On to `CC[N+](C)(CC)Cc1ccc(C2=C/C(=C/c3sc4ccccc4[n+]3C)c3ccccc3N2CCOCCOCCOCCOC)cc1` [Compound 42], for which the live cell permeability result in data set [1] is on record as “live cell impermeant”.
The same measure, in the same setting: with `CN(C)CCCN(CCCN(C)C)C1=C/C(=C\c2sc3ccccc3[n+]2C)c2ccccc2N1CCCCCC(=O)NCCOCCO.[I-]` [Compound 61] the entry was “live cell impermeant”.
On to `CCCN1C=C/C(=C\c2sc3ccccc3[n+]2C)c2ccccc21` [SYBR Safe], for which the “detection sensitivity on nucleic acids” value in the data set on nucleic acids is recorded as “low sensitive than desired”.
As for `CN(C)CCCN(CCCN(C)C)C1=C/C(=C\C=C\c2sc3ccc(S(=O)(=O)[O-])cc3[n+]2C)c2ccccc2N1C` [Compound 53], the “binding selectivity on DNA or RNA” value in the data set on DNA or RNA is “high selectivity for DNA over RNA”.
Regarding `CC[n+]1c(-c2ccccc2)c2cc(N)ccc2c2ccc(N)cc21` [ethidium bromide, Ethidium bromide], the mutagenicity result in data set [2] was “mutagenic”.
For the compound `COCCOCCOCCOCCN1C(N(CCC[N+](C)(C)C)CCC[N+](C)(C)C)=C/C(=C/c2sc3ccccc3[n+]2C)c2ccccc21` [Compound 40], the “selectivity among dsDNA, ssDNA and RNA (fluorescence emission spectra)” value in the data set with dsDNA, ssDNA, and RNA is “good selectivity for DNA versus RNA”.
For the compound `CN1C(=Cc2cc[n+](C)c3ccccc23)Sc2ccccc21` [Thiazole Orange], the “detection sensitivity on nucleic acids” value in the data set with nucleic acids is given as “low detection sensitivity”.
